# Values quoted from earlier work as cited in patent publication US10525099B2, “Orally disintegrating solid pharmaceutical dosage unit containing a partus control substance” (Oxytone Bioscience B.V., priority 2014, dated 2020).
# Bridge positions count the residues as written; N and C are the ends. Square brackets hold non-standard residues; d marks the D form. Peptide text beside a SMILES is read from it. Orn = NCCC[C@H](N)C(=O)O; Mpa = O=C(O)CCS
# Key:
# [1] = in vivo
# [2] = lyophilized
SMILES,half-life in the blood [1],time stable at room temperature [2] [weeks]
"CC[C@H](C)[C@@H]1NC(=O)[C@H](Cc2ccc(O)cc2)NC(=O)[C@@H](N)CSSC[C@@H](C(=O)N2CCC[C@H]2C(=O)N[C@@H](CC(C)C)C(=O)NCC(N)=O)NC(=O)[C@H](CC(N)=O)NC(=O)[C@H](CCC(N)=O)NC1=O [Oxytocin, cysteine-tyrosine-isoleucine-glutamine-asparagine-cysteine-proline-leucine-glycine-amide]",about three,
CCOc1ccc(C[C@H]2NC(=O)CCSSC[C@@H](C(=O)N3CCC[C@H]3C(=O)N[C@@H](CCCN)C(=O)NCC(N)=O)NC(=O)[C@H](CC(N)=O)NC(=O)[C@H]([C@@H](C)O)NC(=O)[C@H]([C@@H](C)CC)NC2=O)cc1 [atosiban] ([Mpa][dY](Et)ITNCP[Orn]G-NH2; disulfide 1-6),,3
